Blank lines part the entries; values can stand above or below the compound they belong to.
What was measured:
Format in all cases: biochemical
Conditions in all cases: 10 nM JAK enzyme, 800 nM Abl peptide, room temperature 75 min
[1] = biological target: JAK1 (Homo sapiens, UniProt P23458); assay: JAK assay (KINASE-GLO luminescent kinase assay), JAK1
Procedure: (§1) All compounds were initially prepared as 10 mM stocks in anhydrous dimethylsulfoxide (DMSO). A 20 μL aliquot of the 10 mM solutions was transferred to individual wells in column 1 of a 96-well polypropylene microtiter plate (Corning #3363) and diluted with DMSO to give a final compound concentration of 4 mM. Test compounds were then serially diluted 1:5 in DMSO for an 11-point concentration response and further diluted in the assay buffer bringing all compound concentrations to a final range of 100 μM to 10 pM in 2.5% DMSO. The assay was performed in white 96-well, flat-bottom, half-area, non-binding assay plate (Corning #3642) in assay buffer consisting of 20 mM HEPES (pH 7.5), 10 mM MgCl2*6H2O, 100 μM sodium orthovanadate, 0.05% CHAPS and 0.1% bovine serum albumin. A 10 μL aliquot of compound from each well of the intermediate dilution plate and 20 μL of a 2×JAK substrate/enzyme solution containing acceptor substrate (800 nM Abl peptide), JAK enzyme (10 nM JAK1, JAK2, JAK3, or TYK2), and 1,4-Dithiothreitol (DTT, 2 μM) were added to all wells. The reaction was initiated by the addition of 10 μL of 4× stock solution ATP (2 μM). Reactions were thoroughly mixed manually, covered and allowed to incubate at room temperature for 75 min. Protein kinase activity was quantitated using Promega's KINASE-GLO™ luminescent Kinase Assay Kit according to the manufacturer's directions. ATP concentrations remaining in Test wells following the termination of the enzymatic reaction were compared against control wells containing equivalent amounts of DMSO containing no inhibitor (CTRL). […] Percent of Control (POC) values were determined for each concentration of compound tested according to the equation:
(§2) [formula] • IC50 values were calculated using the following 4-parameter logistic curve-fitting algorithm:
(§3) [formula] • IC50 values were converted to Ki values using the Cheng-Prusoff Equation: […]

[2] = biological target: JAK2 (Homo sapiens, UniProt O60674); assay: JAK assay (KINASE-GLO luminescent kinase assay), JAK2
JAK2, sequence (O60674 whole entry): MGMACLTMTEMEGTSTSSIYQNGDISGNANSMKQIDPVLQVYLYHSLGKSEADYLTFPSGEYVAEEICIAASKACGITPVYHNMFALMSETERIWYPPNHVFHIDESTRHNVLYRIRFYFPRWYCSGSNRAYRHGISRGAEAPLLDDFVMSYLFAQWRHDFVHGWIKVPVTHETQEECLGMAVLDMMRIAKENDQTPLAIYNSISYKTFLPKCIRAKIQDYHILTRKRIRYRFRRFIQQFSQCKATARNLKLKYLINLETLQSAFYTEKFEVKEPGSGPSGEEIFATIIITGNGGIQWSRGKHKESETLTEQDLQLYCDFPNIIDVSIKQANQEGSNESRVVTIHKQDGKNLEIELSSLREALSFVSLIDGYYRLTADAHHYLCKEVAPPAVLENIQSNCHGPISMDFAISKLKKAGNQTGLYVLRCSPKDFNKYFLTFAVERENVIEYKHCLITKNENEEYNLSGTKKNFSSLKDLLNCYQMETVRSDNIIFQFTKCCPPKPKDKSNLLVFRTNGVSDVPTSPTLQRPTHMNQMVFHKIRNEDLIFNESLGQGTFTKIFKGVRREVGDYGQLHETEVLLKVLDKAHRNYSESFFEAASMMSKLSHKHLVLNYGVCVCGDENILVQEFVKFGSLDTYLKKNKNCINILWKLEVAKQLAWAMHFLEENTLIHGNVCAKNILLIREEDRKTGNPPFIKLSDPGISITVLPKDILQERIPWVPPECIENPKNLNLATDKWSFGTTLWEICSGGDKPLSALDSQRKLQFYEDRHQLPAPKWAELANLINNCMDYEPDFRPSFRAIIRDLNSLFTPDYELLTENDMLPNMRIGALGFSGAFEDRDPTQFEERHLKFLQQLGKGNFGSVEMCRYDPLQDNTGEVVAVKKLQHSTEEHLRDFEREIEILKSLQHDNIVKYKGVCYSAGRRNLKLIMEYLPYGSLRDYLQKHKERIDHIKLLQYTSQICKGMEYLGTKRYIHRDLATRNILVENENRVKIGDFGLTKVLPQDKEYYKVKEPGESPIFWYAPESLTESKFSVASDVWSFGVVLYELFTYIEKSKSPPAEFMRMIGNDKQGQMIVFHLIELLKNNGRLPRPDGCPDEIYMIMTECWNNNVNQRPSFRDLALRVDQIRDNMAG
Procedure: as §1, §2, §3

[3] = biological target: T1, JAK3 (Homo sapiens, UniProt P52333); assay: JAK assay (KINASE-GLO luminescent kinase assay), JAK3
T1 sequence (P52333 1-1124): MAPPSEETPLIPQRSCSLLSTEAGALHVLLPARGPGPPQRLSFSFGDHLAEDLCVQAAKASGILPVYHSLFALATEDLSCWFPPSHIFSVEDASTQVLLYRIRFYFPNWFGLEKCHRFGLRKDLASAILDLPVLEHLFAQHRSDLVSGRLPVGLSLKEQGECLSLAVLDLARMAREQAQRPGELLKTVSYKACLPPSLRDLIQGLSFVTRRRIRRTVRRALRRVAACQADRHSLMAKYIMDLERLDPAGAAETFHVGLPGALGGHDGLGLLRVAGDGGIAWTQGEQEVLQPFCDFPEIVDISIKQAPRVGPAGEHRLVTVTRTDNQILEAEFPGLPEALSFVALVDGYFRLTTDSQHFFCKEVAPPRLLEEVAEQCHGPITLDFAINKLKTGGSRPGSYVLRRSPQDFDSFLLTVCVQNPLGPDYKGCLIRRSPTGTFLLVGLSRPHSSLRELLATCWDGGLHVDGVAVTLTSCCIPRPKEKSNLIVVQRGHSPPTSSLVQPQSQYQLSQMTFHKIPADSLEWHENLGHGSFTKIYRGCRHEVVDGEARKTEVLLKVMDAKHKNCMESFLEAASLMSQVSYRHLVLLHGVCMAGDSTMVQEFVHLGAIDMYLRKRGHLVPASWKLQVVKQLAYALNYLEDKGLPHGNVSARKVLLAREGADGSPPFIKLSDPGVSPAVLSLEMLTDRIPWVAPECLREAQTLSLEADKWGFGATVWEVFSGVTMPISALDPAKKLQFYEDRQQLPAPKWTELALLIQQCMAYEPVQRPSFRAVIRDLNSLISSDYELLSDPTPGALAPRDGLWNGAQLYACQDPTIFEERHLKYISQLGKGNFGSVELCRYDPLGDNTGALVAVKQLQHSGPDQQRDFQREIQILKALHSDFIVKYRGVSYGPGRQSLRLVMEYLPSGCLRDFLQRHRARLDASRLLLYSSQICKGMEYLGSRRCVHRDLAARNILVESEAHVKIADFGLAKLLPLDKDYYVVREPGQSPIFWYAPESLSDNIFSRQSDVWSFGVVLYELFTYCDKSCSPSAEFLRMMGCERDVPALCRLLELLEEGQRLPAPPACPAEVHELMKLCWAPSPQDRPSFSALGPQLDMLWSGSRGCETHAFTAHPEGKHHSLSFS
Procedure: as §1, §2, §3

[4] = biological target: TYK2 (Homo sapiens, UniProt P29597); assay: JAK assay (KINASE-GLO luminescent kinase assay), TYK2
TYK2, sequence (P29597 whole entry): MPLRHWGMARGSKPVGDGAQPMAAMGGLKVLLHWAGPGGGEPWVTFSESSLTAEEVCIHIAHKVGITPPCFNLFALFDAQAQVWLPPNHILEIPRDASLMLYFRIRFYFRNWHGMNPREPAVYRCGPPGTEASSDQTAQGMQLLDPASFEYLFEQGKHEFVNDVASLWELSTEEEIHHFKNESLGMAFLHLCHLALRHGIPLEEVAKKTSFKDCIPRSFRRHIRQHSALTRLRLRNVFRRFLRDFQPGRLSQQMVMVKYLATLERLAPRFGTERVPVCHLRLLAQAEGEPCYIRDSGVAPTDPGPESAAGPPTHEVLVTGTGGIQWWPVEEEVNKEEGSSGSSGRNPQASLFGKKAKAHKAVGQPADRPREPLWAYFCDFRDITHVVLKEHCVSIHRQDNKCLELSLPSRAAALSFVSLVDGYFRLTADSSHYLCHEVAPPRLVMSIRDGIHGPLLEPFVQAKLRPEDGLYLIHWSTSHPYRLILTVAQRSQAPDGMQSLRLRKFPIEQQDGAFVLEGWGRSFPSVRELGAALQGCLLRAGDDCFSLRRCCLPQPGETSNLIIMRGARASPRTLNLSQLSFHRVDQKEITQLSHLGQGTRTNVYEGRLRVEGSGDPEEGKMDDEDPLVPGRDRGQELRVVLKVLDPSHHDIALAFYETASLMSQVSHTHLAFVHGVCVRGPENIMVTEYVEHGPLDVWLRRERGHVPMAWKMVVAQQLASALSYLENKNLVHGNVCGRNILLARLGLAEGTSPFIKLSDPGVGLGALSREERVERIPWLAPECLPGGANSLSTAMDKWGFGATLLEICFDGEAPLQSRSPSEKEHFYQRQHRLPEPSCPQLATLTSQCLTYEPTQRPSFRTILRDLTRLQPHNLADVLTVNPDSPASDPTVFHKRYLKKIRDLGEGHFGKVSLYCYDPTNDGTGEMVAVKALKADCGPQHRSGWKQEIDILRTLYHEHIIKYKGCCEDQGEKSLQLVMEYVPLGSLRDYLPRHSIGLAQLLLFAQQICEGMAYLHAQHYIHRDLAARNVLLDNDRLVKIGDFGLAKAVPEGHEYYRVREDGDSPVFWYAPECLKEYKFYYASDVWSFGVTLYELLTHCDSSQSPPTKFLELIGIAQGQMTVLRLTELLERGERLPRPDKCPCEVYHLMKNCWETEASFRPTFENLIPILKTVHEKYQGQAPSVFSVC
Procedure: as §1, with “A 20 μL aliquot of the 10 mM solutions was transferred to individual wells in column 1 of a 96-well polypropylene microtiter plate (Corning #3363) and diluted with DMSO to give a final compound concentration of 4 mM.” left out
as §2, §3

JAK1, sequence (P23458 whole entry): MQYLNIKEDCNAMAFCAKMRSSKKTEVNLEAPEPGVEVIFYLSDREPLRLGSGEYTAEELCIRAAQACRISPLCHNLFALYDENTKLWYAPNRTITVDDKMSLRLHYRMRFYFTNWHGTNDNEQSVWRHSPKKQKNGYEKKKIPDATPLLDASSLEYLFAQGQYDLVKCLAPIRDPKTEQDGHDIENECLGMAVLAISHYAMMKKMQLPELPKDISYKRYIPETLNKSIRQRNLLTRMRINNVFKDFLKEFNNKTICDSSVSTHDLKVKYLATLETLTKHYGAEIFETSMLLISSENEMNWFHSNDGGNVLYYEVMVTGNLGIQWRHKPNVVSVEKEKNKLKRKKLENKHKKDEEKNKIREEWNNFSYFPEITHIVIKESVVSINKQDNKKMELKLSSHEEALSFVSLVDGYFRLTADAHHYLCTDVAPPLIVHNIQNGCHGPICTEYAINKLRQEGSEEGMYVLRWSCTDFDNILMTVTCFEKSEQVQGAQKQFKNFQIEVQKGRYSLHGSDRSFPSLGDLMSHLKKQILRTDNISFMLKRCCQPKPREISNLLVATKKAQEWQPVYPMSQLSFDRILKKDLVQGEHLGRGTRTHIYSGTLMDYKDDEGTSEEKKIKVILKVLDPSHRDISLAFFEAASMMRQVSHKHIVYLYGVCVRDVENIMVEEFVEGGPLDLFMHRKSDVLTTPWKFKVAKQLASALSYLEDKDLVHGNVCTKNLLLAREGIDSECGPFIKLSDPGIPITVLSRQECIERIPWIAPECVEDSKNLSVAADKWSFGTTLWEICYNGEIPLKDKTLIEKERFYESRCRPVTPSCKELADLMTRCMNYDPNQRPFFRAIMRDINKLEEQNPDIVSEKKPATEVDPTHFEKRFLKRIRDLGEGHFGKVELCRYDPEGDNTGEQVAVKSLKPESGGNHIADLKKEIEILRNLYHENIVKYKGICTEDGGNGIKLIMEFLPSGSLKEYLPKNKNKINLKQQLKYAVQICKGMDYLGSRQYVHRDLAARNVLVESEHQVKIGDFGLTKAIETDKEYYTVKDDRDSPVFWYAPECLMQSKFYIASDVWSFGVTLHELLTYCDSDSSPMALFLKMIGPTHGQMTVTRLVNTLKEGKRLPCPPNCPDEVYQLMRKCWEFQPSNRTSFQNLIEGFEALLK

IC50 [1]: < 100 nM
IC50 [2]: < 10 nM
IC50 [3]: < 100 nM
IC50 [4]: < 100 nM
Compound: Cc1cnc(Nc2ccc(OCCN(C)C)cc2)nc1-c1cnn(CC2(CF)CC2)c1 [(C)CCOC1═CC═C(NC2═NC]

IC50 [1]: < 100 nM
IC50 [2]: < 10 nM
IC50 [3]: < 10 nM
IC50 [4]: < 10 nM
Compound: Cc1cnc(Nc2ccc(N3CCOCC3)cc2)nc1-c1cnn(CC2(C#N)CC2)c1 [C(C1═C(N═C(NC2═CC═C(C═C2)N3CCOCC3)]

Compound: Cc1cnc(NC2CCOCC2)nc1-c1cnn(CCC#N)c1 [CC1═C(N═C(NC2CCOCC2)N═C1)C3═C[N]]
IC50 [1]: < 100000 nM
IC50 [2]: < 100000 nM
IC50 [3]: > 50000 nM
IC50 [4]: > 50000 nM

Compound: Cc1cnc(Nc2cccc3c2CNC3=O)nc1-c1cnn(CC2(Cl)CC2)c1 [CC1═C(N═C(NC2═C3CNC]
IC50 [1]: < 100000 nM
IC50 [2]: < 100 nM
IC50 [3]: < 1000 nM
IC50 [4]: < 100000 nM

Compound: Cc1cnc(Nc2ccc(N3CC4(COC4)C3)cc2)nc1-c1cnn(CC2(CF)CC2)c1 [CC1═C(N═C(NC2═CC(═C(C═C2)N3CC4]
IC50 [1]: < 100 nM
IC50 [2]: < 10 nM
IC50 [3]: < 10 nM
IC50 [4]: < 10 nM

Compound: Cc1cnc(Nc2cccc(CCO)c2)nc1-c1cnn(CC2(CF)CC2)c1 [CC1═C(N═C(NC2═CC(═CC═C2)CCO)N═C1)C3═C[N]]
IC50 [1]: < 10 nM
IC50 [2]: < 10 nM
IC50 [3]: < 10 nM
IC50 [4]: < 10 nM

Compound: Cc1cnc(Nc2cccc(C(N)=O)c2)nc1-c1cnn(CC2(CF)CC2)c1 [CC1═C(N═C(NC2═CC(═CC═C2)C]
IC50 [1]: < 100 nM
IC50 [2]: < 10 nM
IC50 [3]: < 100 nM
IC50 [4]: < 10 nM

Compound: Cc1cnc(Nc2cc(CO)ns2)nc1-c1cnn(CC2(CF)CC2)c1 [CC1═C(N═C(NC2═CC(═NS2)CO)N═C1)C3═C[N]]
IC50 [1]: < 10 nM
IC50 [2]: < 10 nM
IC50 [3]: < 10 nM
IC50 [4]: < 10 nM

Compound: Cc1cnc(Nc2cc(COC(=O)CCN3CCOCC3)ns2)nc1-c1cnn(CC2(CF)CC2)c1 [CC1═C(N═C(NC2═CC(═NS2)COC]
IC50 [1]: < 100 nM
IC50 [2]: < 10 nM
IC50 [3]: < 10 nM
IC50 [4]: < 10 nM

Compound: Cc1cnc(Nc2cc(C(=O)O)ns2)nc1-c1cnn(CC2(CF)CC2)c1 [CC1═C(N═C(NC2═CC(═NS2)C]
IC50 [1]: < 100 nM
IC50 [2]: < 10 nM
IC50 [3]: < 100 nM
IC50 [4]: < 100 nM

Compound: Cc1cnc(Nc2ccc(S(C)(=O)=O)c(F)c2)nc1-c1cnn(CC2(Cl)CC2)c1 [CC1═C(N═C(NC2═CC═C(C(═C2)F)[S]]
IC50 [1]: < 100 nM
IC50 [2]: < 10 nM
IC50 [3]: < 100 nM
IC50 [4]: < 10 nM

Compound: Cc1cnc(Nc2ccc(CN3CCOCC3)cc2)nc1 [CC1═C(N═C(NC2═CC═C(CN3CCOCC3)C═C2)N═C1)]
IC50 [1]: < 100 nM
IC50 [2]: < 10 nM
IC50 [3]: < 10 nM
IC50 [4]: < 100 nM

Compound: Cc1cnc(Nc2ccc(CNC(=O)OC(C)(C)C)cc2)nc1-c1cnn(CC2(CF)CC2)c1 [CC1═C(N═C(NC2═CC═C(CNC(═O)OC]
IC50 [1]: < 100 nM
IC50 [2]: < 10 nM
IC50 [3]: < 100 nM
IC50 [4]: < 100 nM

Compound: Cc1cnc(Nc2ccc(CO)c(CO)c2)nc1-c1cnn(CC2(CF)CC2)c1 [CC1═C(N═C(NC2═CC═C(CO)C]
IC50 [1]: < 100 nM
IC50 [2]: < 10 nM
IC50 [3]: < 100 nM
IC50 [4]: < 10 nM

Compound: Cc1cnc(Nc2ccc(C3CN(C(=O)OC(C)(C)C)C3)cc2)nc1-c1cnn(CCC#N)c1 [CC1═C(N═C(NC2═CC═C(C═C2)C3CN]
IC50 [1]: < 100 nM
IC50 [2]: < 10 nM
IC50 [3]: < 100 nM
IC50 [4]: < 10 nM

Compound: Cc1cnc(Nc2ccc(N3CC4(COC4)C3)cc2)nc1-c1cnn(CC2(CF)CC2)c1 [CC1═C(N═C(NC2═CC═C(C═C2)N3CC4]
IC50 [1]: < 100 nM
IC50 [2]: < 10 nM
IC50 [3]: < 10 nM
IC50 [4]: < 100 nM

Compound: Cc1cnc(Nc2ccc(N3CCN(C(=O)OC(C)(C)C)CC3)cc2)nc1-c1cnn(CC2(CF)CC2)c1 [CC1═C(N═C(NC2═CC═C(C═C2)N3CCN]
IC50 [1]: < 1000 nM
IC50 [2]: < 10 nM
IC50 [3]: < 100 nM
IC50 [4]: < 100 nM

Compound: Cc1cnc(Nc2ccc(S(C)(=O)=O)cc2)nc1-c1cnn(CC2(Cl)CC2)c1 [CC1═C(N═C(NC2═CC═C(C═C2)[S]]
IC50 [1]: < 100 nM
IC50 [2]: < 10 nM
IC50 [3]: < 10 nM
IC50 [4]: < 10 nM

Compound: Cc1cnc(Nc2cccc(C(N)=O)c2)nc1-c1cnn(CC2(CF)CC2)c1 [CC1═C(N═C(NC2═CC═CC(═C2)C]
IC50 [2]: < 10 nM
IC50 [3]: < 100 nM

Compound: Cc1cnc(Nc2ccccn2)nc1-c1cnn(CC2(Cl)CC2)c1 [CC1═C(N═C(NC2═CC═CC═N2)N═C1)C3═C[N]]
IC50 [1]: < 100000 nM
IC50 [2]: < 1000 nM
IC50 [3]: < 100000 nM
IC50 [4]: < 100000 nM

Compound: Cc1cnc(Nc2ccns2)nc1-c1cnn(CC2(CF)CC2)c1 [CC1═C(N═C(NC2═CC═NS2)N═C1)C3═C[N]]
IC50 [2]: < 10 nM

Compound: Cc1cnc(Nc2cnc(N3CCOCC3)nc2)nc1-c1cnn(CC2(CF)CC2)c1 [CC1═C(N═C(NC2═CN═C]
IC50 [1]: < 1000 nM
IC50 [2]: < 10 nM
IC50 [3]: < 100 nM
IC50 [4]: < 1000 nM

Compound: Cc1cnc(NC(=O)Nc2ccc(Cl)cc2)nc1-c1cnn(CC2(CF)CC2)c1 [CC1═C(N═C(NC(═O)NC2═CC═C]
IC50 [1]: > 50000 nM
IC50 [2]: > 50000 nM
IC50 [3]: > 50000 nM
IC50 [4]: > 50000 nM

Compound: Cc1cnc(NC(=O)Oc2ccc(Cl)cc2)nc1-c1cnn(CC2(CF)CC2)c1 [CC1═C(N═C(NC(═O)OC2═CC═C]
IC50 [1]: < 100000 nM
IC50 [2]: < 1000 nM
IC50 [3]: < 100000 nM
IC50 [4]: < 100000 nM

Compound: Cc1cnc(NCCN2CCOCC2)nc1-c1cnn(CCC#N)c1 [CC1═C(N═C(NCCN2CCOCC2)N═C1)C3═C[N]]
IC50 [1]: < 100000 nM
IC50 [2]: < 100000 nM
IC50 [3]: > 50000 nM

Compound: Cc1ccc(S(=O)(=O)Nc2ncc(Cl)c(-c3cnn(CCC#N)c3)n2)cc1 [CC1═CC═C(C═C1)[S](═O)(═O)NC2═NC]
IC50 [2]: < 100000 nM
IC50 [4]: < 100000 nM

IC50 [1]: < 100000 nM
IC50 [2]: < 1000 nM
IC50 [3]: < 100000 nM
Compound: Cc1cnc(Nc2cccc3c2CN(C)C3)nc1-c1cnn(CC2(Cl)CC2)c1 [CN1CC2═CC═CC(═C2C1)NC3═NC(═C]

IC50 [2]: < 100000 nM
Compound: N#CCCn1cc(-c2nc(N(C(=O)c3ccccc3)C(=O)c3ccccc3)ncc2Cl)cn1 [ClC1═C(N═C(N═C1)N(C(═O)C2═CC═CC═C2)C]

— patent US20250236611A1, “PYRAZOLE COMPOUNDS AND USES THEREOF” (ALCON INC., priority 2021, published 2025)
